Where two headings read alike, the source gives them in different places.

Data on seven substances can be found in patent US7989466B2, “Methods to inhibit or augment an inflammatory response” (Cambridge Enterprise Limited, priority 1999, dated 2011).

For assay [1], the system named is chemokine-induced THP-1 migration. Briefly: THP-1 trans-well migration assay, panel of chemokines (MCP-1, MIP1α, IL-8, SDF1α). It is filed as cell-based, human. The conditions noted are these: for CC SPECIFICITY: average inhibitory ED50 versus SDF1 and IL8 divided by average inhibitory ED50 versus MCP-1 and MIP1α.
Assay [2] relates to IL8 induced THP-1 migration. Briefly: THP-1 trans-well migration assay, IL-8 as chemoattractant. It is filed as cell-based, human. The following applies: n.s. = no statistically significant inhibition (p > 0.05); for EC50: read-out: ED50 versus IL8, inhibition of THP-1 migration. How it is done:
(§1) To determine whether an agent inhibits a chemokine-induced activity, such as macrophage recruitment, varying amounts of the agent are mixed with cells in the presence of a known chemoattractant. For example, a range of known concentrations of an agent, e.g., a chemokine peptide, is incubated with a defined number (e.g., 10^4-10^6) of human THP-1 monocyte cells in individual wells of the top compartment of a trans-well plate. Chemokine (such as MCP-1, MIP1α, IL8 or SDF-1α), at a concentration known to cause significant migration of THP-1 cells in the trans-well migration assay, is placed in the lower compartment (FIG. 1). Cells are then incubated at 37° C. for a period sufficient to allow migration, e.g., 4 hours. After incubation, the cells are gently removed from the top of the filter with a pipette, 20 μl of 20 mM EDTA in simple PBS is added into each top well, and incubated for 20 minutes at 4° C. The filter is carefully flushed with media using a gentle flow, and removed. A standard curve consisting of a two-fold dilution series of THP-1 cells (in 29 μl) is prepared to accurately quantify the number of cells that have migrated. Migrated cells are stained with 3 μl of MTT stock dye solution which is added directly into each well (5 mg/ml in RPMI-1640 without phenol red, Sigma Chemical Co.) and incubated at 37° C. for 4 hours. The media is carefully aspirated from each well, and the converted dye is solubilized by 20 μl of DMSO. Absorbance of converted dye is measured at a wavelength of 595 nm using an ELISA plate reader. The number of migrated cells in each well is then determined by interpolation of the standard curve (see also Imai et al., J. Biol. Chem., 272, 15036 (1997)).
(§2) For this assay, THP-1 cells were maintained at a density of 4×10^5 cells per ml in RPMI-1640 supplemented with 10% fetal calf serum+20 μM 2-mercaptoethanol. Chemotaxis was induced in a 96-well disposable chemotaxis chamber fitted with a […] polycarbonate filter (PVP free, ChemoTX, Neuroprobe Inc., Cabin John). Twenty-nine μl of chemoattractant (recombinant human chemokine; 50 ng/ml, i.e., 5.9 nM) or control (100 ng/ml TGFβ) was added to the lower compartment of each well. The framed filter was aligned with the holes in the corner of the filter frame and placed over the wells. Five×10^4 THP-1 cells in 25 μl of RPMI-1640 were added to the upper compartment. Peptides were dissolved in Milli Q water and then serially diluted in culture medium. In most cases, the serially diluted peptides were added to the upper compartment of the chemotaxis chamber. The chamber was incubated at 37° C. in a humidified atmosphere of 5% CO2 for 4 hours.
(§3) After incubation, the cells were gently removed from the top of the filter with a pipette, 20 μl of 20 mM EDTA in PBS was added into each top well, and the mixture was incubated for 20 minutes at 4° C. The filter was then carefully flushed with media using a gentle flow, and removed. A standard curve was prepared to accurately quantify the number of THP-1 cells that had migrated. The curve was based on a two-fold dilution series of THP-1 cells (top standard 100,000 cells in 29 μl). Cells which had migrated, and in separate wells, the cells in the standards, were stained with 3 μl of MTT stock solution which was added directly into each well (5 mg/ml in RPMI 1640 without phenol red, Sigma Chemical Co.) and incubated at 37° C. for 4 hours. The media was carefully aspirated from each well, and the converted dye was solubilized by 20 μl of DMSO. Absorbance of converted dye was measured at a wavelength of 595 nm using an ELISA plate reader. The number of cells that had migrated in each well was determined by interpolation of the standard curve.

For assay [3], the system named is MCP-1 induced THP-1 migration. The assay is described as follows: THP-1 trans-well migration assay, MCP-1 as chemoattractant. It is filed as cell-based, human. The conditions noted are these: agent with the cells in the upper compartment, n.s. = no statistically significant inhibition (p > 0.05); for EC50: read-out: ED50 versus MCP-1, inhibition of THP-1 migration. How it is done:
as §1, §2, §3

Assay [4] deals with MIP1α induced THP-1 migration. Briefly: THP-1 trans-well migration assay, MIP1α as chemoattractant. The assay is classed as cell-based, human. The conditions noted are these: for EC50: n.s. = no statistically significant inhibition (p > 0.05), read-out: ED50 versus MIP1α, inhibition of THP-1 migration. How it is done:
as §1, §2, §3

Assay [5] concerns TGFβ1 induced THP-1 migration. The assay is described as follows: THP-1 trans-well migration assay, TGFβ1 as non-chemokine control. It is filed as cell-based, human. The conditions noted are these: n.s. = no statistically significant inhibition (p > 0.05). How it is done:
Any method suitable for counting cells can be used, for example, counting with a hemocytometer, incubation of the cells with MTT (see above), or FACS analysis. A negative control assay is also performed, using TGF-β or another non-chemokine chemoattractant (e.g., IL1β or TNFα). To assess whether the agent is cytotoxic, the same concentrations of agent are incubated with THP-1 cells. Agents which 1) are not cytotoxic at levels which inhibit migration, 2) are ineffective at inhibiting the negative control-induced migration, and 3) reduce or inhibit chemokine-induced THP-1 migration, are agents which fall within the scope of the invention.
Chemotaxis was induced in a 96-well disposable chemotaxis chamber fitted with a […] polycarbonate filter (PVP free, ChemoTX, Neuroprobe Inc., Cabin John). […] The framed filter was aligned with the holes in the corner of the filter frame and placed over the wells. […] Peptides were dissolved in Milli Q water and then serially diluted in culture medium. In most cases, the serially diluted peptides were added to the upper compartment of the chemotaxis chamber. The chamber was incubated at 37° C. in a humidified atmosphere of 5% CO2 for 4 hours.
After incubation, the cells were gently removed from the top of the filter with a pipette, 20 μl of 20 mM EDTA in PBS was added into each top well, and the mixture was incubated for 20 minutes at 4° C. The filter was then carefully flushed with media using a gentle flow, and removed. […] The curve was based on a two-fold dilution series of THP-1 cells (top standard 100,000 cells in 29 μl). […] The media was carefully aspirated from each well, and the converted dye was solubilized by 20 μl of DMSO.

In assay [6] the test system is SDF-1α induced THP-1 migration. Briefly: THP-1 trans-well migration assay, SDF-1α as chemoattractant. The conditions noted are these: n.s. = no statistically significant inhibition (p > 0.05); for EC50: read-out: ED50 versus SDF-1α, inhibition of THP-1 migration. It is filed as cell-based, human. How it is done:
as §1, §2, §3

Assay [7] addresses T1, Duffy Antigen Receptor for Chemokines (DARC) (Homo sapiens, UniProt Q16570).
T1 sequence (Q16570 1-336): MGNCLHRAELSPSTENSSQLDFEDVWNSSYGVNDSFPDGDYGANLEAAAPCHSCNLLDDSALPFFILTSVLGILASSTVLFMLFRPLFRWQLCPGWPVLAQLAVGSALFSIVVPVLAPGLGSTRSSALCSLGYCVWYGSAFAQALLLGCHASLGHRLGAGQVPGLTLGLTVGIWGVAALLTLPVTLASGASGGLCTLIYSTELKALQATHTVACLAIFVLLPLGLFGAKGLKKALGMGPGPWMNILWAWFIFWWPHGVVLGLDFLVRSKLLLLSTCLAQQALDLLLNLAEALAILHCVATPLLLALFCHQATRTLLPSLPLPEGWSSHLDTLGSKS
Briefly: DARC binding: competition with 125I-MCP-1 on red blood cells.

The mark [8] stands for this setting: average inhibitory ED50 for inhibition of THP-1 migration induced by each of the chemokines, read-out: AVERAGE ED50.

As to EICADPKQKWIQ [Ile11peptide 3], in assay [1], the “selectivity of IL-8 over other chemokines” value was “about 3 fold”. In addition, the EC50 in assay [1] (setting [8]) came to 5 µM; in assay [2], 2 µM; in assay [3] it was 6 µM; in assay [4] it was 4 µM; in assay [6], 7 µM. Also, the “CC SPECIFICITY” value in assay [1] came out at 0.9. In assay [5], the “ED50 versus TGFβ1, inhibition of THP-1 migration” value (from here on “ED50 versus TGFβ1, inhibition”) is “n.s”.

In the case of EICADPSEEWVQ [Ser7Glu8Glu9pep3], the “selectivity ratio for MIP1α versus all other chemokines” value in assay [1] is “about 3 fold”. The EC50 amounted to 6 µM in assay [1] (setting [8]); 9 µM in assay [2]; 7 µM in assay [3]; 2 µM in assay [4]; 5 µM in assay [6]. Further, in assay [5], the “ED50 versus TGFβ1, inhibition” value is on record as “n.s”.

As to EICADPSQKWVQ [Ser7peptide 3], the EC50 in assay [1] (setting [8]) is 5 µM; in assay [2] it was 3 µM; in assay [3] it was 7 µM; in assay [4], 6 µM; in assay [6], 4 µM. Also, in assay [1], the “CC SPECIFICITY” value is 0.5. Further, the “ED50 versus TGFβ1, inhibition” value in assay [5] was “n.s”.

Turning to EICLDPKQKWIQ [Leu4Ile11peptide 3], the “more potent as an inhibitor of CC chemokines than peptide 3(1-12)[MCP-1]” value in assay [1] is “approximately 5 fold”. In addition, the EC50 in assay [1] (average inhibitory ED50 for inhibition of THP-1 migration induced by each of the chemokines, listed as Leu4Ile11peptide 3(1-12)[MCP-1], read-out: AVERAGE ED50) was 2.3 µM; in assay [2], 3 µM; in assay [3] (listed as Leu4Ile11peptide 3(1-12)[MCP-1]), around 1 µM; in assay [3], 2 µM; in assay [4], 1 µM; in assay [6] it was 3 µM. For the same substance, the “CC SPECIFICITY” value in assay [1] worked out at 2.0. The “selectivity for receptors on THP-1 cells over DARC” value in assay [7] is listed as “at least 20 fold”. Further, the “ED50 versus TGFβ1, inhibition” value in assay [5] is “n.s”.

For EICLDPKQKWVQ [Leu4peptide 3], the “increase in potency as an inhibitor of CXC chemokines compared with peptide 3(1-12)[MCP-1]” value in assay [1] is “approximately 4 fold”. For the same substance, the EC50 in assay [1] (setting [8]) came to 5 µM; in assay [2], 3 µM; in assay [3] it was 8 µM; in assay [4], 7 µM; in assay [6], 3 µM. Moreover, the “ED50 versus TGFβ1, inhibition” value in assay [5] was “n.s”.

On to KQKWVQ [Peptide 3[7-12]], for which the EC50 in assay [1] (THP-1 migration, read-out: ED50 range, migration by all chemokines tested) was 7 to 9 µM; in assay [2], 6 µM; in assay [3] it was 7 µM; in assay [4], 5 µM; in assay [6], 6 µM. For the same substance, the “ED50 versus TGFβ1, inhibition” value in assay [5] was “n.s”.

SEE: the “specificity for the cognate chemokine over all the other chemokines tested” value in assay [1] (KQK MCP-1, SEE MIP1-α) is above 100 fold. The “CC SPECIFICITY” value in assay [1] is listed as above 100. Also, the EC50 came out at 0.8 µM in assay [1] (footnote f, KQK MCP-1, SEE MIP1α, KLK SDF1, KEN IL8, read-out: ED50 of a tripeptide against the one chemokine it is highly specific for) and 6 µM in assay [4]. Further, in assay [2], the “ED50 versus IL8, inhibition of THP-1 migration” value is reported as “n.s”. For the same substance, the “ED50 versus MCP-1, inhibition of THP-1 migration” value in assay [3] is “n.s”. Moreover, the “percentage inhibition of migration induced by MIP1α” value in assay [4] (tripeptide at 100 μM, mean ± range, dash = no statistically significant reduction in migration) is recorded as 65 ± 3%. Also, the “ED50 versus TGFβ1, inhibition” value in assay [5] is given as “n.s”. In addition, in assay [6], the “ED50 versus SDF-1α, inhibition of THP-1 migration” value is on record as “n.s”.
